The subject of this experiment is SARS-CoV-2 VOCs. As to the kind of experiment: microbe, parasite or virus in culture. Format: cell-based.
Where [1] appears, read: Severe acute respiratory syndrome coronavirus 2, read-out: EC50, dsRNA staining.
[2] abbreviates: Severe acute respiratory syndrome coronavirus 2, read-out: EC50, nucleocapsid staining.

Molecules are shown by their SMILES. Where two headings read alike, the source gives them in different places.

A word on the EC50: it is the concentration giving half of the maximal effect. As to `CC(C)(C)[C@H](NC(=O)C(F)(F)F)C(=O)N1C[C@H]2[C@@H]([C@H]1C(=O)N[C@H](C#N)C[C@@H]1CCNC1=O)C2(C)C` [C7, Nirmatrelvir, reference compound], the EC50 was 1300 nM (Severe acute respiratory syndrome coronavirus 2, Calu-3); 400 to 700 nM under setting [1]; 300 to 400 nM under setting [2].

Turning to `CN(C)c1ccc(N(Cc2cc(Cl)cs2)C(=O)Cc2cncc3cccc(O)c23)cc1` [C5a, N-((4-chlorothiophen-2-yl)methyl)-N-(4-(dimethylamino)phenyl)-2-(5-hydroxyisoquinolin-4-yl)acetamide], the 50% effective concentration (EC50) is, setting by setting: under setting [1], 28 to 95 nM; under setting [2], 30 to 69 nM.

On to `CN(C)c1ccc(N(Cc2cc(Cl)cs2)C(=O)Cc2cncc3ccccc23)cc1` [C5, N-((4-chlorothiophen-2-yl)methyl)-N-(4-(dimethylamino)phenyl)-2-(isoquinolin-4-yl)acetamide], for which the EC50 reads like this: under setting [1], 200 to 700 nM; under setting [2], 100 to 300 nM.

(Values after PMC10453993 (Emerging Microbes & Infections, 2023).)
